In paper PMC6606794, “Crosstalk of Cellulose and Mannan Perception Pathways Leads to Inhibition of Cellulase Production in Several Filamentous Fungi” (mBio, 2019):

How the values were obtained:
GH2-1 = biological target: T1, GH2-1 (Neurospora crassa, UniProt Q7SFE1); assay: 4-nitrophenol release, absorbance at […] nm; assay type: biochemical; conditions: 50 mM KP buffer pH 5.5, 37 °C, 1 h, 0.1 µg enzyme, 80 µg substrate
T1 construct: gh2-1 cDNA in pGAPZ-B (EcoRI/XbaI), His-tagged, expressed in Pichia pastoris X-33, purified by IMAC from cell lysate; no predicted signal peptide
T1 sequence (Q7SFE1 1-854): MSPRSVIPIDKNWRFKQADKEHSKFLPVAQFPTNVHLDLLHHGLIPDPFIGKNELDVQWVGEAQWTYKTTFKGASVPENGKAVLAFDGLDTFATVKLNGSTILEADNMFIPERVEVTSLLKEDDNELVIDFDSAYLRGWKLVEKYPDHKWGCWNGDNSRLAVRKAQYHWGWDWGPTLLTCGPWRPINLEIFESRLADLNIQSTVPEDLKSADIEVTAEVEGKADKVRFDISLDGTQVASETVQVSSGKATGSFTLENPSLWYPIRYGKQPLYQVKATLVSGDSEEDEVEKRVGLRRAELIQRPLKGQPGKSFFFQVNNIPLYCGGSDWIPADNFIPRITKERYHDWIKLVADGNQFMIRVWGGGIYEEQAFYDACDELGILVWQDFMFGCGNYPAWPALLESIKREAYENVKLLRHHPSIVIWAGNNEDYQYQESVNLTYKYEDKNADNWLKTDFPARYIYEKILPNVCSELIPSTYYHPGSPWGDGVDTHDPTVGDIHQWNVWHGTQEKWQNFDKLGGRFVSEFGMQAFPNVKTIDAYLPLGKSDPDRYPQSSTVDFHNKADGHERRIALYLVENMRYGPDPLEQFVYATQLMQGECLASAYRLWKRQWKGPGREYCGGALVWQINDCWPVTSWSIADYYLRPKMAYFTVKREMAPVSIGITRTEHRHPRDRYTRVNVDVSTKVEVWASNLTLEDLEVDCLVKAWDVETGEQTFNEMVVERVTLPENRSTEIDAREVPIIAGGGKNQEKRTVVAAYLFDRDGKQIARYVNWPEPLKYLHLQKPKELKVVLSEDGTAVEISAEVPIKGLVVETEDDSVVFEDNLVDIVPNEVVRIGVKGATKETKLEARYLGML

CDT-1 = biological target: T2, CDT-1 (Neurospora crassa, UniProt Q7SCU1); assay: uptake by yeast expressing CDT-1, residual sugar by HPAEC-PAD; assay type: cell-based; conditions: 100 µM sugar, 30 min, over empty-vector background
T2 construct: pRS316-CDT1 expressed in Saccharomyces cerevisiae D452-2
T2 sequence (Q7SCU1 1-579): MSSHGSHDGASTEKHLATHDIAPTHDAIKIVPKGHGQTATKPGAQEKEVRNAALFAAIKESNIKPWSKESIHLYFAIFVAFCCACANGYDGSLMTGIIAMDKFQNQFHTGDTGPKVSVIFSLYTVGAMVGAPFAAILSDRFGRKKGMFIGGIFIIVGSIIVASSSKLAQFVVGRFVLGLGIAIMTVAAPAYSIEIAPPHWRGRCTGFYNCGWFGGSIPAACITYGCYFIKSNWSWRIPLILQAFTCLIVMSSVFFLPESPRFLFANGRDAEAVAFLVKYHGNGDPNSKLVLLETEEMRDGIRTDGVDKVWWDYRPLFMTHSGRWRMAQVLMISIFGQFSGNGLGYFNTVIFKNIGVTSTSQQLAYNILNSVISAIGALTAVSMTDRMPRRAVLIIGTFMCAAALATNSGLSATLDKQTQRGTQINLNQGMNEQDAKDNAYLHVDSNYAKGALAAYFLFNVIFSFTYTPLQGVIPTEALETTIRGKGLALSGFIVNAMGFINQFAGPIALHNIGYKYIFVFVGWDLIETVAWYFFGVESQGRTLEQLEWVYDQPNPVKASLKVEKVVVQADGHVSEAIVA

CDT-2 = biological target: T3, CDT-2 (Neurospora crassa, UniProt Q7SD12); assay: uptake by yeast expressing CDT-2, residual sugar by HPAEC-PAD; assay type: cell-based; conditions: 100 µM sugar, 30 min
T3 construct: pRS316-CDT2 expressed in Saccharomyces cerevisiae D452-2
T3 sequence (Q7SD12 1-525): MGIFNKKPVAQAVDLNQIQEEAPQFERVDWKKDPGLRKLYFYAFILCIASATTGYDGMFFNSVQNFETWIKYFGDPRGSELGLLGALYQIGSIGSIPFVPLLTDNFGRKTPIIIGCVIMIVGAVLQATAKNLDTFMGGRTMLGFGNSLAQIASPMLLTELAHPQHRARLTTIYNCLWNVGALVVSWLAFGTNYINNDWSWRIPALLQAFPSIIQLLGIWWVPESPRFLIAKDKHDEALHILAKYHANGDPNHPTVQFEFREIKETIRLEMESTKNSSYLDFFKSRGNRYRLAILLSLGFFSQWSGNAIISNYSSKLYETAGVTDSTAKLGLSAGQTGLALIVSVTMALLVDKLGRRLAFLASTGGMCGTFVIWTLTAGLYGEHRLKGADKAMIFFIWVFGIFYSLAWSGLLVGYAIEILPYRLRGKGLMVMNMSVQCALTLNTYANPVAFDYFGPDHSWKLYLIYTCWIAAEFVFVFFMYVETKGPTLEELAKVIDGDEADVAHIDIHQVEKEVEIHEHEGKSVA

Structure (SMILES) | 4-nitrophenol release, absorbance at 405 nm (GH2-1) | % remaining in supernatant (CDT-1; competes with cellobiose) | uptake by yeast expressing CDT-2, residual sugar by HPAEC-PAD (CDT-2) | % remaining in supernatant (CDT-1; competes with mannobiose)
O=[N+]([O-])c1ccc(O[C@@H]2O[C@H](CO)[C@@H](O)[C@H](O)[C@@H]2O)cc1 [ρNP-β-Man, 4-nitrophenyl-β-D-mannopyranoside] | The purified enzyme showed strong activity on ρNP-β-D-mannopyranoside with high specificity |  |  | 
OC[C@H]1O[C@@H](O[C@H]2[C@H](O)[C@H](O)C(O)O[C@@H]2CO)[C@@H](O)[C@@H](O)[C@@H]1O (some centres unmarked) [MB, mannobiose] |  | ~ 18% | not only cellobiose was imported by both S. cerevisiae strains, but also mannobiose | 
OC[C@H]1O[C@@H](O[C@H]2[C@H](O)[C@@H](O)C(O)O[C@@H]2CO)[C@H](O)[C@@H](O)[C@@H]1O (some centres unmarked) [CB, cellobiose] |  |  | not only cellobiose was imported by both S. cerevisiae strains, but also mannobiose | ~ 40%
